Assay results as given in patent US9751888B2, “Heterocyclic compounds and uses thereof” (Infinity Pharmaceuticals, Inc., priority 2013, dated 2017).

Target: human Class I PI3 kinase α (Homo sapiens (Human), UniProt P42336)
Experiment: PI3-Kinase Promega ADP-Glo Max assay, α isoform
Type: biochemical
Conditions: 20 nM kinase, 3 mM ATP, 500 uM diC8-PtdInsP; read-out: Promega α PI3K IC50

IC50	Structure (SMILES)
1 to 10 µM	C[C@H](NC(=O)c1c(N)nn2cccnc12)c1cc2cccc(Cl)c2c(=O)n1C1CC(NS(C)(=O)=O)C1 (stereo partly drawn) [Compound 72]
1 to 10 µM	Cc1ccccc1-n1c([C@H](C)NC(=O)c2c(N)nn3cccnc23)cc2cccc(Cl)c2c1=O [Compound 73]

More lines, now with the values behind:

Structure (SMILES)	IC50
C[C@H](NC(=O)c1c(N)nn2cccnc12)c1cc2cccc(OCc3cnn(C)c3)c2c(=O)n1-c1ccccc1 [Compound 67]	1 to 10 µM
C[C@H](NC(=O)c1c(N)nn2cccnc12)c1cc2cccc(Cl)c2c(=O)n1-c1ccccc1O [Compound 68]	1 to 10 µM
C[C@H](NC(=O)c1c(N)nn2cccnc12)c1cc2cccc(Cl)c2c(=O)n1-c1cccc(O)c1 [Compound 69]	1 to 10 µM
C[C@H](NC(=O)c1c(N)nn2cccnc12)c1cc2cccc(Cl)c2c(=O)n1-c1ccc(O)cc1 [Compound 70]	1 to 10 µM
C[C@H](NC(=O)c1c(N)nn2cccnc12)c1cc2cccc(Cl)c2c(=O)n1C1CCC1 [Compound 71]	1 to 10 µM

Target: human Class I PI3 kinase β (Homo sapiens (Human), UniProt P42338)
Sequence (P42338 whole entry, looked up, canonical isoform): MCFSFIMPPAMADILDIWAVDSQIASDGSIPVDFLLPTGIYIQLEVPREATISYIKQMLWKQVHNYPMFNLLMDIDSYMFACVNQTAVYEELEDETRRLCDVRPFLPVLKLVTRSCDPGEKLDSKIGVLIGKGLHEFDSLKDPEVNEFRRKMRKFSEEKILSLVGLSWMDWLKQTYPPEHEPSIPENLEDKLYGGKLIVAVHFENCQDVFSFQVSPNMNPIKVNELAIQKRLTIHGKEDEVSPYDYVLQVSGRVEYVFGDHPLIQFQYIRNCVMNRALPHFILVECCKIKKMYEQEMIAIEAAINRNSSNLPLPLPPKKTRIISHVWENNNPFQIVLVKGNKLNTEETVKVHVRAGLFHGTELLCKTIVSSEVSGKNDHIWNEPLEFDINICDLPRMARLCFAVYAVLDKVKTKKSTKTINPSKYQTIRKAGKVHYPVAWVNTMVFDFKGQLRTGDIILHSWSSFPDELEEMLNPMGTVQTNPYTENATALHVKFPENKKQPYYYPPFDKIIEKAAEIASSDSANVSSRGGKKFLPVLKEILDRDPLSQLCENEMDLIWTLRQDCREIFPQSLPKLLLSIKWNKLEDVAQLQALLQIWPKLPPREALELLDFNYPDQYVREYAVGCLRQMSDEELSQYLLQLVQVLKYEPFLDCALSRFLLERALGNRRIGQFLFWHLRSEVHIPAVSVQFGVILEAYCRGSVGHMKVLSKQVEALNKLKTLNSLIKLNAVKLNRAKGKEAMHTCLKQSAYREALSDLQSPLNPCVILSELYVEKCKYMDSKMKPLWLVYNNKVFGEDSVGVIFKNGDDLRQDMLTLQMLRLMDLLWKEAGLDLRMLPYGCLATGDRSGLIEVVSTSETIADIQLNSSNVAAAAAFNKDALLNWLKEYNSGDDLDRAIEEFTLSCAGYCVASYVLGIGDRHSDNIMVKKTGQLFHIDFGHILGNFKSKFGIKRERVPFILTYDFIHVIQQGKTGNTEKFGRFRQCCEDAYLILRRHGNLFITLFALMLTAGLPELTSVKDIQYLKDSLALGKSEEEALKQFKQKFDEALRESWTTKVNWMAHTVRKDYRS
Sequence (P27986 whole entry partner, looked up, canonical isoform): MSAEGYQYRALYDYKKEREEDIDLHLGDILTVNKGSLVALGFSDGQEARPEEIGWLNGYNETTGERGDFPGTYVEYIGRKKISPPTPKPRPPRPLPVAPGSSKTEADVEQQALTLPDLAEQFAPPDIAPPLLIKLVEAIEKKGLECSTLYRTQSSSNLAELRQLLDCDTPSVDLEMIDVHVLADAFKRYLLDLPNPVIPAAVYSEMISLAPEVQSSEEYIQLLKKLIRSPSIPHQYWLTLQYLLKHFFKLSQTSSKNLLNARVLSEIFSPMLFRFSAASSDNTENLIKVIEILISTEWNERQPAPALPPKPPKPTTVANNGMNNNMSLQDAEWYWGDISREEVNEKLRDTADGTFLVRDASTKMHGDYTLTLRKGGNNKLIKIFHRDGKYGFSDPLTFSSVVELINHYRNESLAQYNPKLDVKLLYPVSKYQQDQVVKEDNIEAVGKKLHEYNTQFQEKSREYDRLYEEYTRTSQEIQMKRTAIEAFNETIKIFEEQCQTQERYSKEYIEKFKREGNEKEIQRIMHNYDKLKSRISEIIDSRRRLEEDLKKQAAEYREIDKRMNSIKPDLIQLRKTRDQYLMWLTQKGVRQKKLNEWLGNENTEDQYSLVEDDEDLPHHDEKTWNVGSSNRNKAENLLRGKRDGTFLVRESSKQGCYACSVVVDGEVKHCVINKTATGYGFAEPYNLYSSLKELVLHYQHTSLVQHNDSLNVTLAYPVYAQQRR
Experiment: PI3-Kinase Promega ADP-Glo Max assay, β isoform
Type: biochemical
Conditions: 40 nM kinase, 3 mM ATP, 500 uM diC8-PtdInsP; read-out: Promega β PI3K IC50

IC50	Structure (SMILES)
100 to 500 nM	C[C@H](NC(=O)c1c(N)nn2cccnc12)c1cc2cccc(Cl)c2c(=O)n1C1CC(NS(C)(=O)=O)C1 (stereo partly drawn) [Compound 72]
100 to 500 nM	Cc1ccccc1-n1c([C@H](C)NC(=O)c2c(N)nn3cccnc23)cc2cccc(Cl)c2c1=O [Compound 73]

More lines, now with the values behind:

Structure (SMILES)	IC50
C[C@H](NC(=O)c1c(N)nn2cccnc12)c1cc2cccc(OCc3cnn(C)c3)c2c(=O)n1-c1ccccc1 [Compound 67]	1000 to 10000 nM
C[C@H](NC(=O)c1c(N)nn2cccnc12)c1cc2cccc(Cl)c2c(=O)n1-c1ccccc1O [Compound 68]	100 to 500 nM
C[C@H](NC(=O)c1c(N)nn2cccnc12)c1cc2cccc(Cl)c2c(=O)n1-c1cccc(O)c1 [Compound 69]	10 to 100 nM
C[C@H](NC(=O)c1c(N)nn2cccnc12)c1cc2cccc(Cl)c2c(=O)n1-c1ccc(O)cc1 [Compound 70]	1 to 10 nM
C[C@H](NC(=O)c1c(N)nn2cccnc12)c1cc2cccc(Cl)c2c(=O)n1C1CCC1 [Compound 71]	500 to 1000 nM

Target: human Class I PI3 kinase δ (Homo sapiens (Human), UniProt O00329)
Sequence (O00329 whole entry, canonical isoform): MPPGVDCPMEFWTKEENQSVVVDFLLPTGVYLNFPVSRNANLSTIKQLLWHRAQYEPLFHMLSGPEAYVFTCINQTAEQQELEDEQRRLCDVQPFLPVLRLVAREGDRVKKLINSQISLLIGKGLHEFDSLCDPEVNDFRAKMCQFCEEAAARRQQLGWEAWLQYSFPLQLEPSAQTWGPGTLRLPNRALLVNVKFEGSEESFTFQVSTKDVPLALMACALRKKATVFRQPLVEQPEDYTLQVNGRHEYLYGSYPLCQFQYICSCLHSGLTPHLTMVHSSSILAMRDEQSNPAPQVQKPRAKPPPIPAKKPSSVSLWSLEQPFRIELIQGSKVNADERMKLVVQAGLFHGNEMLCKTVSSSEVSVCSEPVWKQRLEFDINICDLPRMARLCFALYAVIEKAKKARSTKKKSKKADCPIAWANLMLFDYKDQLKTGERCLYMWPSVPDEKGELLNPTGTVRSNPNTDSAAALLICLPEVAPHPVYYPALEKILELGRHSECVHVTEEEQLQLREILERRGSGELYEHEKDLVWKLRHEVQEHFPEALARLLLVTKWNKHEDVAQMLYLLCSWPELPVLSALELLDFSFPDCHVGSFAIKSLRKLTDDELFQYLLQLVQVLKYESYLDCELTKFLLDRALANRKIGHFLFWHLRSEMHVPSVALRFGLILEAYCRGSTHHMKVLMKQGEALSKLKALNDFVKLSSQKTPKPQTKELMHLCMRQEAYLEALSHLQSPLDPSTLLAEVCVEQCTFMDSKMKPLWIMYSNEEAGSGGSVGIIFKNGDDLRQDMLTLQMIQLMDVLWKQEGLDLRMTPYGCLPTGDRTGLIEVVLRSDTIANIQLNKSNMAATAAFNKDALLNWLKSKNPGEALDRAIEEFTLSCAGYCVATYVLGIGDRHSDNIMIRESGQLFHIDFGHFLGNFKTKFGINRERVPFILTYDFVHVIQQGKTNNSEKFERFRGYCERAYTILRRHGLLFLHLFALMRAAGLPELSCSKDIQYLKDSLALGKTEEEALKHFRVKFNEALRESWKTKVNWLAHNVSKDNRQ
Sequence (P27986 whole entry partner, canonical isoform): as the sequence (P27986 whole entry partner, looked up, canonical isoform) above
Experiment: PI3-Kinase Promega ADP-Glo Max assay, δ isoform
Type: biochemical
Conditions: 20 nM kinase, 3 mM ATP, 500 uM diC8-PtdInsP; read-out: Promega δ PI3K IC50

IC50	Structure (SMILES)
1000 to 10000 nM	C[C@H](NC(=O)c1c(N)nn2cccnc12)c1cc2cccc(Cl)c2c(=O)n1C1CC(NS(C)(=O)=O)C1 (stereo partly drawn) [Compound 72]
500 to 1000 nM	Cc1ccccc1-n1c([C@H](C)NC(=O)c2c(N)nn3cccnc23)cc2cccc(Cl)c2c1=O [Compound 73]

The remaining lines, values behind:

Structure (SMILES)	IC50
C[C@H](NC(=O)c1c(N)nn2cccnc12)c1cc2cccc(OCc3cnn(C)c3)c2c(=O)n1-c1ccccc1 [Compound 67]	1000 to 10000 nM
C[C@H](NC(=O)c1c(N)nn2cccnc12)c1cc2cccc(Cl)c2c(=O)n1-c1ccccc1O [Compound 68]	500 to 1000 nM
C[C@H](NC(=O)c1c(N)nn2cccnc12)c1cc2cccc(Cl)c2c(=O)n1-c1cccc(O)c1 [Compound 69]	100 to 500 nM
C[C@H](NC(=O)c1c(N)nn2cccnc12)c1cc2cccc(Cl)c2c(=O)n1-c1ccc(O)cc1 [Compound 70]	100 to 500 nM
C[C@H](NC(=O)c1c(N)nn2cccnc12)c1cc2cccc(Cl)c2c(=O)n1C1CCC1 [Compound 71]	1000 to 10000 nM

Target: human Class I PI3 kinase γ (Homo sapiens (Human), UniProt P48736)
Sequence (P48736 whole entry, canonical isoform): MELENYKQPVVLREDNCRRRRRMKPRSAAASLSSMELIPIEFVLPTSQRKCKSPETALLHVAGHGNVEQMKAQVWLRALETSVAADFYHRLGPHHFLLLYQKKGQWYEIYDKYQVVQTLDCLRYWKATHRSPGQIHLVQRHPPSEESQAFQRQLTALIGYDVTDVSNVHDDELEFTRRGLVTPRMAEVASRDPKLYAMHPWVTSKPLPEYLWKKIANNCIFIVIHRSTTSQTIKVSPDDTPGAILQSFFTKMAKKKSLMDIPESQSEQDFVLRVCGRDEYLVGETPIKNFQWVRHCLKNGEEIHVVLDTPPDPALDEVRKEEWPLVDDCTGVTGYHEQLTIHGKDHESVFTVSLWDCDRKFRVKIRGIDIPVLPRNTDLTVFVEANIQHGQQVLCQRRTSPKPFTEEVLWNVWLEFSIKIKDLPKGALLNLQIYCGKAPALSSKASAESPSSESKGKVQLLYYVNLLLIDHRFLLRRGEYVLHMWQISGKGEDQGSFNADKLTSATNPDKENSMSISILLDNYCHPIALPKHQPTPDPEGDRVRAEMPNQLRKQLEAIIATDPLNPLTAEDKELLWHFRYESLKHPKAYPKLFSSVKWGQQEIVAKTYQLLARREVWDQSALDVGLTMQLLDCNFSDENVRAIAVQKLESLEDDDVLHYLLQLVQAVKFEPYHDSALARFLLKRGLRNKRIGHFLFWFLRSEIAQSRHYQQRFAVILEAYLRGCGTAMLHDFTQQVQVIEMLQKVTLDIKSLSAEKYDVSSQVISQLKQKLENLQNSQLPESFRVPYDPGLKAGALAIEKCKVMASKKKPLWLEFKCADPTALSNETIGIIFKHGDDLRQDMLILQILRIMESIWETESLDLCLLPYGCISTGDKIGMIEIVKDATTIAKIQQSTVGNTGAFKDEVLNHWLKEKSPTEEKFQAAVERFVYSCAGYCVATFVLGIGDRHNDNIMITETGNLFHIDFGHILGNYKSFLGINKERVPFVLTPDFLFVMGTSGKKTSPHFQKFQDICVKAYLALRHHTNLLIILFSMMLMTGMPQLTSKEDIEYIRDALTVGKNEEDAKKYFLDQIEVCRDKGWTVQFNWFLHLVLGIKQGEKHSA
Experiment: PI3-Kinase Promega ADP-Glo Max assay, γ isoform
Type: biochemical
Conditions: 40 nM kinase, 3 mM ATP, 500 uM diC8-PtdInsP; read-out: Promega γ PI3K IC50
Method: Promega ADP-Glo Max assay kit (Cat. No. V7002) was utilized to determine IC50 values for α, β, δ and γ isoforms of human Class I PI3 kinases (Millipore). Samples of kinase (20 nM α or δ, 40 nM β or γ isoform) were incubated with compound for 15 minutes at room temperature in reaction buffer (15 mM HEPES pH 7.4, 20 mM NaCl, 1 mM EGTA, 0.02% Tween 20, 10 mM MgCl2, 0.2 mg/mL bovine-γ-globulins) followed by addition of ATP/diC8-PtdInsP mixture to give final concentrations of 3 mM ATP and 500 uM diC8-PtdInsP. Reactions were incubated at room temperature for 2 hours followed by addition of 25 uL of stop solution. After a 40-minute incubation at room temperature, 50 uL of Promega detection mix was added followed by incubation for 1 hour at room temperature. Plates were then read on Envision plate reader in luminescence mode. Data was converted to % inhibition using the following equation below:
[formula] where S is the sample luminescence, Pos is a positive control without added PI3K, Neg is the negative control without added compound. Data was then plotted as % inhibition vs compound concentration.
Certain compounds provided herein were tested in PI3-Kinase Promega Assay using procedures as described above to determine IC50 values for α, β, δ and/or γ isoforms.

IC50	Structure (SMILES)
1000 to 10000 nM	C[C@H](NC(=O)c1c(N)nn2cccnc12)c1cc2cccc(Cl)c2c(=O)n1C1CC(NS(C)(=O)=O)C1 (stereo partly drawn) [Compound 72]
100 to 500 nM	Cc1ccccc1-n1c([C@H](C)NC(=O)c2c(N)nn3cccnc23)cc2cccc(Cl)c2c1=O [Compound 73]

The next lines start with the compound.

Structure (SMILES)	IC50
C[C@H](NC(=O)c1c(N)nn2cccnc12)c1cc2cccc(OCc3cnn(C)c3)c2c(=O)n1-c1ccccc1 [Compound 67]	500 to 1000 nM
C[C@H](NC(=O)c1c(N)nn2cccnc12)c1cc2cccc(Cl)c2c(=O)n1-c1ccccc1O [Compound 68]	10 to 100 nM
C[C@H](NC(=O)c1c(N)nn2cccnc12)c1cc2cccc(Cl)c2c(=O)n1-c1cccc(O)c1 [Compound 69]	10 to 100 nM
C[C@H](NC(=O)c1c(N)nn2cccnc12)c1cc2cccc(Cl)c2c(=O)n1-c1ccc(O)cc1 [Compound 70]	10 to 100 nM
C[C@H](NC(=O)c1c(N)nn2cccnc12)c1cc2cccc(Cl)c2c(=O)n1C1CCC1 [Compound 71]	1000 to 10000 nM

Target: p110 δ (RAJI cells) (Homo sapiens (Human), UniProt O00329)
Sequence (O00329 whole entry): as the sequence (O00329 whole entry, canonical isoform) above
Sequence (P27986 whole entry partner): as the sequence (P27986 whole entry partner, looked up, canonical isoform) above
Experiment: PI3K-δ selective cellular assay: phospho-AKT in anti-human IgM stimulated RAJI cells
Type: cell-based
Conditions: serum-starved RAJI cells stimulated with anti-human IgM
Source text: A compound's ability in selectively inhibiting PI3K-δ can be assessed using RAJI cells, i.e., B lymphocyte cells derived from lymphoma patients. Briefly, serum-starved RAJI cells are stimulated with anti-human IgM, thereby causing signaling through the B-cell receptors, as described in, for example, He et al., Leukemia Research (2009) 33: 798-802. B-cell receptor signaling is important for the activation, differentiation, and survival of B cells and certain B-cell derived cancers. Reduction of phospho-AKT is indicative of compounds that may inhibit B-cell proliferation and function in certain diseases. […] Certain compounds provided herein were tested in RAJI cell model using procedures as described above.

IC50	Structure (SMILES)
10 to 100 nM	C[C@H](NC(=O)c1c(N)nn2cccnc12)c1cc2cccc(Cl)c2c(=O)n1C1CC(NS(C)(=O)=O)C1 (stereo partly drawn) [Compound 72]
10 to 100 nM	Cc1ccccc1-n1c([C@H](C)NC(=O)c2c(N)nn3cccnc23)cc2cccc(Cl)c2c1=O [Compound 73]

Second part, the compound before the results:

Structure (SMILES)	IC50
C[C@H](NC(=O)c1c(N)nn2cccnc12)c1cc2cccc(OCc3cnn(C)c3)c2c(=O)n1-c1ccccc1 [Compound 67]	1000 to 10000 nM
C[C@H](NC(=O)c1c(N)nn2cccnc12)c1cc2cccc(Cl)c2c(=O)n1-c1ccccc1O [Compound 68]	1 to 10 nM
C[C@H](NC(=O)c1c(N)nn2cccnc12)c1cc2cccc(Cl)c2c(=O)n1-c1cccc(O)c1 [Compound 69]	1 to 10 nM
C[C@H](NC(=O)c1c(N)nn2cccnc12)c1cc2cccc(Cl)c2c(=O)n1-c1ccc(O)cc1 [Compound 70]	1 to 10 nM
C[C@H](NC(=O)c1c(N)nn2cccnc12)c1cc2cccc(Cl)c2c(=O)n1C1CCC1 [Compound 71]	10 to 100 nM

Target: p110 γ (RAW264.7 cells) (Mus musculus (Mouse), UniProt Q9JHG7)
Experiment: PI3K-γ selective cellular assay: phospho-AKT in C5a stimulated RAW264.7 macrophages
Type: cell-based
Conditions: serum-starved RAW264.7 cells stimulated with C5a
Method: Certain compounds provided herein were tested in RAW 264.7 cell model using procedures as described above.

IC50	Structure (SMILES)
100 to 500 nM	C[C@H](NC(=O)c1c(N)nn2cccnc12)c1cc2cccc(Cl)c2c(=O)n1C1CC(NS(C)(=O)=O)C1 (stereo partly drawn) [Compound 72]
1 to 10 nM	Cc1ccccc1-n1c([C@H](C)NC(=O)c2c(N)nn3cccnc23)cc2cccc(Cl)c2c1=O [Compound 73]

More lines, now with the values behind:

Structure (SMILES)	IC50
C[C@H](NC(=O)c1c(N)nn2cccnc12)c1cc2cccc(OCc3cnn(C)c3)c2c(=O)n1-c1ccccc1 [Compound 67]	10 to 100 nM
C[C@H](NC(=O)c1c(N)nn2cccnc12)c1cc2cccc(Cl)c2c(=O)n1-c1ccccc1O [Compound 68]	1 to 10 nM
C[C@H](NC(=O)c1c(N)nn2cccnc12)c1cc2cccc(Cl)c2c(=O)n1-c1cccc(O)c1 [Compound 69]	10 to 100 nM
C[C@H](NC(=O)c1c(N)nn2cccnc12)c1cc2cccc(Cl)c2c(=O)n1-c1ccc(O)cc1 [Compound 70]	10 to 100 nM
C[C@H](NC(=O)c1c(N)nn2cccnc12)c1cc2cccc(Cl)c2c(=O)n1C1CCC1 [Compound 71]	10 to 100 nM
